Values quoted from earlier work in US20240335377A1, “COMPOSITION AND METHODS OF TREATMENT USING TRANSDERMAL SUPPLEMENTATION” (Xygenyx Inc., priority 2023, published 2024).
Where a SMILES comes first, the peptide text is derived from it. [ ]: non-standard residue; d: D form. Cit = NC(=O)NCCC[C@H](N)C(=O)O

Tests used:
[1] = test system: skin; conditions: topical formulations, within four weeks of treatment
[2] = test system: wide dynamic range neurons in the ventroposterolateral nucleus of the thalamus
[3] = test system: F2-isoprostane; conditions: large doses of 1600-3200 IU/day
[4] = dietary supplementation, doses up to 400 IU/day
[5] = α-tocopherol taken as 1.0
[6] = test system: skin; conditions: single penetration enhancer
[7] = test system: rheumatoid arthritis; conditions: rheumatoid arthritis study
[8] = in vivo
[9] = test system: markers of inflammation; conditions: supplementation, individuals with metabolic syndrome
[10] = test system: skin; conditions: topical, concentrations 0.5-5%
[11] = even when dietary intake occurs in equal portions

Compound: CC[C@H](C)[C@H](NC(=O)[C@H](CC(=O)O)NC(=O)[C@@H](N)CCCCN)C(=O)N[C@@H](CCCNC(N)=O)C(N)=O [tripeptide-10 citrulline, Tripeptide-10 citrulline] (H-KDI[Cit]-NH2)
- improvement of suppleness [1]: ≤ 54%

Compound: CCCCCc1cc(O)c2c(c1)OC(C)(C)[C@@H]1CCC(C)=C[C@@H]21 [THC, Δ-9-tetrahydrocannabinol]
- power in mediating pain relative to morphine [2]: ten times more powerful than morphine

Compound: Cc1c(C)c2c(c(C)c1O)CCC(C)(CCCC(C)CCCC(C)CCCC(C)C)O2 (stereo not drawn) [α-tocopherol]
- blood plasma concentration of F2-isoprostane [3]: significantly lower
- reduction of risk of coronary disease [4]: up to 34%
- reduction of risk of developing neurodegenerative diseases such as Alzheimer's Syndrome or dementia ([4]; controlled trials): ≤ 24%

Compound: C/C(=C\CO)CCC[C@H](C)CCC[C@H](C)CCCC(C)C [phytol, Phytol]
- solubility in water: nearly insoluble in water

Compound: Cc1cc(O)c(C)c2c1OC(C)(CCCC(C)CCCC(C)CCCC(C)C)CC2 (stereo not drawn) [β-tocopherol]
- relative biological activity [5]: 0.5

Compound: CC1CCC(C(C)C)C(O)C1 (stereo not shown) [Menthol]
- increase of transdermal drug uptake (factor) [6]: ≥ 10

Compound: CC12CCC(CC1)C(C)(C)O2 [eucalyptol, Eucalyptol]
- increase of transdermal drug uptake (factor) [6]: more than 10

Compound: C=C1CC/C=C(\C)CC[C@@H]2[C@@H]1CC2(C)C [β-caryophyllene]
- swelling of joints and lymph nodes, circulating and articular leukocytes [7]: reduced swelling of joints and lymph nodes as well as the number of circulating and articular leukocytes

Compound: HGH: hormone comprising a peptide chain that is synthesized in the pituitary gland
- biological half-life [8]: 10-20 minutes

Compound: Cc1cc(O)cc2c1OC(C)(CCCC(C)CCCC(C)CCCC(C)C)CC2 (stereo not shown) [δ-tocopherol]
- relative biological activity [5]: 0.03
- markers of inflammation in the blood [9]: reduced markers of inflammation

Compound: C=CCCCCCCCCC(=O)N[C@@H](Cc1ccccc1)C(=O)O [UP, Undecylenoyl phenylalanine]
- time to skin lightening effects [10]: ≥ 7 days

Compound: Cc1c(O)cc2c(c1C)OC(C)(CCCC(C)CCCC(C)CCCC(C)C)CC2 (stereo not shown) [γ-tocopherol]
- relative biological activity [5]: 0.1
- concentration in vivo relative to α-tocopherol [11]: roughly 10%
